Measured values from patent US9862713B2, “Substituted bicyclic heteroaryl compounds as RXR agonists” (CONNEXIOS LIFE SCIENCES PVT. LTD., priority 2014, dated 2018).

System: hRXR α, β, or γ
Assay: Transactivation assay (RARE-Luc dual luciferase reporter in HEK-293 cells), activity relative to LG268
Assay type: cell-based, human
Conditions: compound at 300 nM, 24 h; luciferase activity expressed relative to LG268
Description: HEK-293 cells (ATCC) were seeded one day prior to transfection. For assessing EC50 of activation of RXR isoforms 2 μg of hRXR α, β, or γ (OriGENE, USA) over-expressing vector, 1 μg of plasmid expressing firefly luciferase under RARE element (RARE-Luc) and 25 ng of renilla luciferase vector (QIAGEN, USA) were co-transfected using lipofectamine reagent. Post 24 h of transfection, cells were treated with different concentrations of RXR agonists (100 nM, 300 nM and 1 uM) for 24 h followed by estimation of luciferase activity using Dual Luciferase Reporter Assay System (Promega). Luciferase activity was normalized to that of renilla luciferase. The activities of the RXR compounds were expressed relative to LG268, a known RXR agonist.

Row | Compound | Activity at 300 nM
1 | Cc1c(N(CC(C)C)c2ccc(C(=O)O)c([N+](=O)[O-])c2)sc2c1C(C)(C)CCC2(C)C [Compound 51, 4-[(2-methylpropyl) (3,4,4,7,7-pentamethyl-4,5,6,7-tetrahydro-1-benzothiophen-2-yl)amino]-2-nitrobenzoic acid] | ***** (>0.6)
2 | CC1(C)CC(=O)C(C)(C)c2nc(N(CC3CC3)c3ccc(C(=O)O)cn3)sc21 [Compound 52, 6-[(cyclopropylmethyl) (4,4,7,7-tetramethyl-5-oxo-4,5,6,7-tetrahydro-1,3-benzothiazol-2-yl)amino]pyridine-3-carboxylic acid] | ***** (>0.6)
3 | CC(C)CN(c1ccc(C(=O)O)cc1)c1nc2c(s1)C(C)(C)CC(=O)C2(C)C [Compound 53, 4-[(2-methylpropyl) (4,4,7,7-tetramethyl-5-oxo-4,5,6,7-tetrahydro-1,3-benzothiazol-2-yl)amino]benzoic acid] | ***** (>0.6)
4 | COc1cc(N(CC(C)C)c2sc3c(c2C)C(C)(C)CCC3(C)C)ccc1C(=O)O [Compound 54, 2-methoxy-4-[(2-methylpropyl)(3,4,4,7,7-pentamethyl-4,5,6,7-tetrahydro-1-benzothiophen-2-yl)amino]benzoic acid] | *** (>0.4 and <0.5)
5 | Cc1c(N(CC(C)C)c2ccc(C(=O)O)c(OCC3CC3)c2)sc2c1C(C)(C)CCC2(C)C [Compound 55, 2-(cyclopropylmethoxy)-4-[(2-methylpropyl) (3,4,4,7,7-pentamethyl-4,5,6,7-tetrahydro-1-benzothiophen-2-yl)amino]benzoic acid] | *** (>0.4 and <0.5)
6 | C#CCOc1cc(N(CC(C)C)c2sc3c(c2C)C(C)(C)CCC3(C)C)ccc1C(=O)O [Compound 56, 4-[(2-methylpropyl) (3,4,4,7,7-pentamethyl-4,5,6,7-tetrahydro-1-benzothiophen-2-yl)amino]-2-(prop-2-yn-1-yloxy)benzoic acid] | *** (>0.4 and <0.5)
7 | Cc1c(N(CC(C)C)c2ccc(C(=O)O)c(Oc3ccccc3)c2)sc2c1C(C)(C)CCC2(C)C [Compound 57, 4-[(2-methylpropyl) (3,4,4,7,7-pentamethyl-4,5,6,7-tetrahydro-1-benzothiophen-2-yl)amino]-2-phenoxybenzoic acid] | ***** (>0.6)
8 | Cc1cc(N(CC(C)C)c2nc3c(s2)C(C)(C)CCC3(C)C)ccc1C(=O)O [Compound 58, 2-methyl-4-[(2-methylpropyl) (4,4,7,7-tetramethyl-4,5,6,7-tetrahydro-1,3-benzothiazol-2-yl)amino]benzoic acid] | *** (>0.4 and <0.5)
9 | Cc1cc(N(CC2CC2)c2nc3c(s2)C(C)(C)CCC3(C)C)ccc1C(=O)O [Compound 59, 4-[(cyclopropylmethyl) (4,4,7,7-tetramethyl-4,5,6,7-tetrahydro-1,3-benzothiazol-2-yl)amino]-2-methylbenzoic acid] | ** (>0.3 and <0.4)
10 | Cc1cc(C(=O)O)ccc1N(CC1CC1)c1nc2c(s1)C(C)(C)CCC2(C)C [Compound 60, 4-[(cyclopropylmethyl) (4,4,7,7-tetramethyl-4,5,6,7-tetrahydro-1,3-benzothiazol-2-yl)amino]-3-methylbenzoic acid] | ** (>0.3 and <0.4)
11 | Cc1cc(C(=O)O)ccc1N(CC(C)C)c1nc2c(s1)C(C)(C)CCC2(C)C [Compound 61, 3-methyl-4-[(2-methylpropyl) (4,4,7,7-tetramethyl-4,5,6,7-tetrahydro-1,3-benzothiazol-2-yl)amino]benzoic acid] | **** (>0.5 to <0.6)
12 | C=CCN(c1ccc(C(=O)O)cc1)c1nc2c(s1)C(C)(C)CCC2(C)C [Compound 62, 4-[prop-2-en-1-yl(4,4,7,7-tetramethyl-4,5,6,7-tetrahydro-1,3-benzothiazol-2-yl)amino]benzoic acid] | ***** (>0.6)
13 | CC1(C)CCC(C)(C)c2sc(N(c3ccc(C(=O)O)cc3)c3ccc(C(=O)O)o3)nc21 [Compound 63, 5-[(4-carboxyphenyl) (4,4,7,7-tetramethyl-4,5,6,7-tetrahydro-1,3-benzothiazol-2-yl)amino]furan-2-carboxylic acid] | *** (>0.4 and <0.5)
14 | CC(C)CN(c1ccc(C(=O)O)cn1)c1nc2c(s1)C(C)(C)CCC2(C)C [Compound 64, 6-[(2-methylpropyl) (4,4,7,7-tetramethyl-4,5,6,7-tetrahydro-1,3-benzothiazol-2-yl)amino]pyridine-3-carboxylic acid] | ***** (>0.6)
15 | CCCN(c1ccc(C(=O)O)cn1)c1nc2c(s1)C(C)(C)CCC2(C)C [Compound 65, 6-[propyl(4,4,7,7-tetramethyl-4,5,6,7-tetrahydro-1,3-benzothiazol-2-yl)amino]pyridine-3-carboxylic acid] | ***** (>0.6)
16 | CC1(C)CCC(C)(C)c2sc(N(Cc3ccccc3)c3ccc(C(=O)O)cn3)nc21 [Compound 66, 6-[benzyl(4,4,7,7-tetramethyl-4,5,6,7-tetrahydro-1,3-benzothiazol-2-yl)amino]pyridine-3-carboxylic acid] | ***** (>0.6)
17 | CC(C)CN(c1ccc(C(=O)O)nc1)c1nc2c(s1)C(C)(C)CCC2(C)C [Compound 67, 5-[(2-methylpropyl) (4,4,7,7-tetramethyl-4,5,6,7-tetrahydro-1,3-benzothiazol-2-yl)amino]pyridine-2-carboxylic acid] | * (<0.3)
18 | CC1(C)CCC(C)(C)c2sc(N(CC3CC3)c3ncc(C(=O)O)cc3Cl)nc21 [Compound 68] | * (<0.3)
19 | CC(C)CN(c1nc2c(s1)C(C)(C)CCC2(C)C)c1ncc(C(=O)O)cc1Cl [Compound 69, 5-chloro-6-[(2-methylpropyl) (4,4,7,7-tetramethyl-4,5,6,7-tetrahydro-1,3-benzothiazol-2-yl)amino]pyridine-3-carboxylic acid] | * (<0.3)
20 | CC1(C)CCC(C)(C)c2sc(N(CC3CC3)c3cc(Cl)c(C(=O)O)cn3)nc21 [Compound 70, 4-chloro-6-[(cyclopropylmethyl) (4,4,7,7-tetramethyl-4,5,6,7-tetrahydro-1,3-benzothiazol-2-yl)amino]pyridine-3-carboxylic acid] | ***** (>0.6)
21 | COc1cc(C(=O)O)ccc1N(CC1CC1)c1nc2c(s1)C(C)(C)CCC2(C)C [Compound 71, 4-[(cyclopropylmethyl) (4,4,7,7-tetramethyl-4,5,6,7-tetrahydro-1,3-benzothiazol-2-yl)amino]-3-methoxybenzoic acid] | * (<0.3)
22 | COc1cc(N(CC2CC2)c2nc3c(s2)C(C)(C)CCC3(C)C)ccc1C(=O)O [Compound 72] | * (<0.3)
23 | COc1cc(N(CC(C)C)c2nc3c(s2)C(C)(C)CCC3(C)C)ccc1C(=O)O [Compound 73, 2-methoxy-4-[(2-methylpropyl) (4,4,7,7-tetramethyl-4,5,6,7-tetrahydro-1,3-benzothiazol-2-yl)amino]benzoic acid] | ** (>0.3 and <0.4)
24 | Cc1c(N(CC(C)C)c2ccc(C(=O)O)c(N)c2)sc2c1C(C)(C)CCC2(C)C [Compound 79, 2-amino-4-[(2-methylpropyl) (3,4,4,7,7-pentamethyl-4,5,6,7-tetrahydro-1-benzothiophen-2-yl)amino]benzoic acid] | ***** (>0.6)
25 | CCCS(=O)(=O)Nc1cc(N(CC(C)C)c2sc3c(c2C)C(C)(C)CCC3(C)C)ccc1C(=O)O [Compound 80, 4-[(2-methylpropyl) (3,4,4,7,7-pentamethyl-4,5,6,7-tetrahydro-1-benzothiophen-2-yl)amino]-2-[(propylsulfonyl)amino]benzoic acid] | *** (>0.4 and <0.5)
26 | CCCN(c1ccc(C(=O)O)cn1)c1nc2c(s1)C(C)(C)C=CC2(C)C [Compound 81, 6-[propyl(4,4,7,7-tetramethyl-4,7-dihydro-1,3-benzothiazol-2-yl)amino]pyridine-3-carboxylic acid] | ***** (>0.6)
27 | CC(C)CN(c1ccc(C(=O)O)cn1)c1nc2c(s1)C(C)(C)C=CC2(C)C [Compound 82, 6-[(2-methylpropyl) (4,4,7,7-tetramethyl-4,7-dihydro-1,3-benzothiazol-2-yl)amino]pyridine-3-carboxylic acid] | ***** (>0.6)
28 | CC(C)CN(c1ccc(C(=O)O)cc1)c1nc2c(s1)C(C)(C)C=CC2(C)C [Compound 83, 4-[(2-methylpropyl) (4,4,7,7-tetramethyl-4,7-dihydro-1,3-benzothiazol-2-yl)amino]benzoic acid] | * (<0.3)

Same assay, conditions: compound at 1 µM, 24 h; luciferase activity expressed relative to LG268

Row | Compound | Activity at 1 µM
29 | CC1(C)CCC(C)(C)c2sc(/C=C/c3ccc(C(=O)O)cc3)nc21 [Compound 48, 4-[(E)-2-(4,4,7,7-Tetramethyl-4,5,6,7-tetrahydro-1,3-benzothiazol-2-yl)ethenyl]benzoic acid] | * (<0.7)
30 | CC1(C)CCC(C)(C)c2sc(/C=C\c3ccc(C(=O)O)cc3)nc21 [Compound 49, 4-[(Z)-2-(4,4,7,7-Tetramethyl-4,5,6,7-tetrahydro-1,3-benzothiazol-2-yl)ethenyl]benzoic acid] | ***** (>1)
31 | CC1(C)CCC(C)(C)c2sc(/C=C/c3ccc(C(=O)O)cn3)nc21 [Compound 50, 6-[(E)-2-(4,4,7,7-Tetramethyl-4,5,6,7-tetrahydro-1,3-benzothiazol-2-yl)ethenyl]pyridine-3-carboxylic acid] | * (<0.7)
